Data taken from US6683211B1, “Phenyl-propargylether derivatives” (priority 2000, dated 2004).

What was measured:
Assay type in all cases: in vivo
Plasmopara viticola [1] = test: D-1b) residual-curative action against Plasmopara viticola on vines; settings: Plasmopara viticola, 144 h; 200 ppm; test D-1b) residual-curative; vine seedlings; evaluated 6 days after infection; read-out: inhibit fungal infestations
Procedure: (§1) D-1: Action Against Plasmopara viticola on Vines
b) Residual-curative Action
Vine seedlings are infected at the 4- to 5-leaf stage with a sporangia suspension of the fungus. After incubation for 24 hours in a humidity chamber at 95-100% relative humidity and +20° C., the infected plants are dried and sprayed with a spray mixture (0.02% active ingredient) prepared from a wettable powder formulation of the test compound. After the spray coating has dried, the treated plants are placed in the humidity chamber again.
Fungus infestation is evaluated 6 days after infection.

Plasmopara viticola [2] = test: D-1a) residual-protective action against Plasmopara viticola on vines; settings: Plasmopara viticola, 144 h; 200 ppm; test D-1a) residual-protective; vine seedlings; evaluated after 6 days; read-out: inhibit fungal infestations
Procedure: as §1
(§2) a) Residual-protective Action
Vine seedlings are sprayed at the 4- to 5-leaf stage with a spray mixture (0.02% active ingredient) prepared from a wettable powder formulation of the test compound. After 24 hours, the treated plants are infected with a sporangia suspension of the fungus. Fungus infestation is evaluated after incubation for 6 days at 95-100% relative humidity and +20° C.

Phytophthora [3] = test: D-2b) systemic action against Phytophthora on tomato plants; settings: Phytophthora, 96 h; 200 ppm; test D-2b) systemic (soil watering), evaluated after 4 days, read-out: inhibit fungal infestations
Procedure: (§3) D-2: Action Against Phytophthora on Tomato Plants
After a cultivation period of 3 weeks, tomato plants are watered with a spray mixture (0.02% active ingredient based on the volume of the soil) prepared from a wettable powder formulation of the test compound. […] After 96 hours, the treated plants are infected with a sporangia suspension of the fungus. Fungus infestation is evaluated after incubation of the infected plants for 4 days at 90-100% relative humidity and +20° C. […] Compounds E1.003, E1.004, E1.009, E1.011, E1.012, E1.014, E1.018, E1.019, E1.020, E1.021, E1.022, E1.023, E1.025, E1.031, E1.032, E1.033, E1.038, E1.040, E1.044, E1.045, E1.049, E1.050, E1.053, E1.055, E1.057, E1.064, E1.085, E1.089, E1.090, E1.091, E1.102, E1.08, E1.110, E1.112, E1.121, E1.125, E1.129, E1.139 and E1.141 at 200 ppm inhibit fungal infestations in both tests D-2a) and D-2b) by 80-100%.

Phytophthora [4] = test: D-3a) residual-protective action against Phytophthora on potato plants; settings: Phytophthora, 96 h; 200 ppm; test D-3a) residual-protective; potato plants (Bintje); evaluated after 4 days; read-out: inhibit fungal infestations
Procedure: (§4) D-3: Action Against Phytophthora on Potato Plants
as §2
2-3 week old potato plants (Bintje variety) are sprayed with a spray mixture (0.02% active ingredient) prepared from a wettable powder formulation of the test compound. After 48 hours, the treated plants are infected with a sporangia suspension of the fungus. Fungus infestation is evaluated after incubation of the infected plants for 4 days at 90-100% relative humidity and +20° C.

Phytophthora [5] = test: D-2a) residual-protective action against Phytophthora on tomato plants; settings: Phytophthora, 120 h; 200 ppm; test D-2a) residual-protective, evaluated after 5 days, read-out: inhibit fungal infestations
Procedure: as §3, §2
After a cultivation period of 3 weeks, tomato plants are sprayed with a spray mixture (0.02% active ingredient) prepared from a wettable powder formulation of the test compound. After 48 hours, the treated plants are infected with a sporangia suspension of the fungus. Fungus infestation is evaluated after incubation of the infected plants for 5 days at 90-100% relative humidity and +20° C.

Phytophthora [6] = test: D-3b) systemic action against Phytophthora on potato plants; settings: Phytophthora, 96 h; 200 ppm; test D-3b) systemic (soil watering); potato plants (Bintje); evaluated after 4 days; read-out: inhibit fungal infestations
Procedure: as §4
2-3 week old potato plants (Bintje variety) are watered with a spray mixture (0.02% active ingredient based on the volume of the soil) prepared from a wettable powder formulation of the test compound. […] After 48 hours, the treated plants are infected with a sporangia suspension of the fungus. Fungus infestation is evaluated after incubation of the infected plants for 4 days at 90-100% relative humidity and +20° C. Fungal infestation is effectively controlled with compounds of Tables 1 to 35. Compounds E1.003, E1.004, E1.009, E1.011, E1.012, E1.019, E1.020, E1.021, E1.022, E1.025, E1.031, E1.032, E1.033, E1.038, E1.045, E1.049, E1.050, E1.053, E1.085, E1.089, E1.090, E1.091, E1.102, E1.110, E1.112, E1.121, E1.125, E1.129 at 200 ppm inhibit fungal infestations in both tests D-3a) and D-3b) by 80-100%.

Measured: inhibition at 200 ppm

C#CCOc1ccc(CCNC(=O)C(OC)c2ccc(Cl)cc2)cc1OC (stereo not drawn) [Compound E1.003, 2-(4-Chloro-phenyl)-2-methoxy-N-[2-(3-methoxy-4-prop-2-ynyloxy-phenyl)-ethyl]-acetamide]
80 to 100%: all assays above

C#CCOc1ccc(CCNC(=O)C(OCC)c2ccc(Cl)cc2)cc1OC (stereo not drawn) [Compound E1.004, 2-(4-chloro-phenyl)-2-ethoxy-N-[2-(3-methoxy-4-prop-2-ynyloxy-phenyl)-ethyl]-acetamide]
80 to 100%: all assays above

C#CCOc1ccc(CCNC(=O)C(OCC=C)c2ccc(Cl)cc2)cc1OC (stereo not drawn) [Compound E1.009, 2-allyloxy-2-(4-chloro-phenyl)-N-[2-(3-methoxy-4-prop-2-ynyloxy-phenyl)-ethyl]-acetamide]
80 to 100%: all assays above

C#CCOc1ccc(CCNC(=O)C(OCC#C)c2ccc(Cl)cc2)cc1OC (stereo not drawn) [Compound E1.011, 2-(4-chloro-phenyl)-N-[2-(3-methoxy-4-prop-2-ynyloxy-phenyl)-ethyl]-2-prop-2-ynyloxy-acetamide]
80 to 100%: all assays above

C#CCOC(C(=O)NCCc1ccc(OCC#CCC)c(OC)c1)c1ccc(Cl)cc1 (stereo not drawn) [Compound E1.012, 2-(4-chloro-phenyl)-N-[2-(3-methoxy-4-pent-2-ynyloxy-phenyl)-ethyl]-2-prop-2-ynyloxy-acetamide]
80 to 100%: all assays above

C#CCOc1ccc(CCNC(=O)C(OCC#CC)c2ccc(Cl)cc2)cc1OC (stereo not drawn) [Compound E1.014, 2-but-2-ynyloxy-2-(4-chloro-phenyl)-N-[2-(3-methoxy-4-prop-2-ynyloxy-phenyl)-ethyl]-acetamide]
80 to 100%: Plasmopara viticola [1] | Plasmopara viticola [2] | Phytophthora [3] | Phytophthora [5]

C#CCOc1ccc(CCNC(=O)C(OCOCC)c2ccc(Cl)cc2)cc1OC (stereo not drawn) [Compound E1.018, 2-(4-chloro-phenyl)-2-ethoxymethoxy-N-[2-(3-methoxy-4-prop-2-ynyloxy-phenyl)-ethyl]-acetamide]
80 to 100%: Plasmopara viticola [1] | Plasmopara viticola [2] | Phytophthora [3] | Phytophthora [5]

C#CCOc1ccc(CCNC(=O)C(OC)c2ccc(Br)cc2)cc1OC (stereo not drawn) [Compound E1.019, 2-(4-bromo-phenyl)-2-methoxy-N-[2-(3-methoxy-4-prop-2-ynyloxy-phenyl)-ethyl]-acetamide]
80 to 100%: all assays above

C#CCOc1ccc(CCNC(=O)C(OCC)c2ccc(Br)cc2)cc1OC (stereo not drawn) [Compound E1.020, 2-(4-bromo-phenyl)-2-ethoxy-N-[2-(3-methoxy-4-prop-2-ynyloxy-phenyl)-ethyl]-acetamide]
80 to 100%: all assays above

C#CCOc1ccc(CCNC(=O)C(OCC=C)c2ccc(Br)cc2)cc1OC (stereo not drawn) [Compound E1.021, 2-allyloxy-2-(4-bromo-phenyl)-N-[2-(3-methoxy-4-prop-2-ynyloxy-phenyl)-ethyl]-acetamide]
80 to 100%: all assays above

C#CCOC(C(=O)NCCc1ccc(OCC#CCC)c(OC)c1)c1ccc(Br)cc1 (stereo not drawn) [Compound E1.023, 2-(4-bromo-phenyl)-N-[2-(3-methoxy-4-pent-2-ynyloxy-phenyl)-ethyl]2-prop-2-ynyloxy-acetamide]
80 to 100%: Plasmopara viticola [1] | Plasmopara viticola [2] | Phytophthora [3] | Phytophthora [5]

C#CCOc1ccc(CCNC(=O)C(OCC#CC)c2ccc(Br)cc2)cc1OC (stereo not drawn) [Compound E1.025, 2-(4-bromo-phenyl)-2-but-2-ynyloxy-N-[2-(3-methoxy-4-prop-2-ynyloxy-phenyl)-ethyl]-acetamide]
80 to 100%: all assays above

C#CCOc1ccc(CCNC(=O)C(OCC#C)c2ccc(F)cc2)cc1OC (stereo not drawn) [Compound E1.033, 2-(4-fluoro-phenyl)-N-[2-(3-methoxy-4-prop-2-ynyloxy-phenyl)-ethyl]-2-prop-2-ynyloxy-acetamide]
80 to 100%: all assays above

C#CCOc1ccc(CCNC(=O)C(OCC#C)c2ccc(C(F)(F)F)cc2)cc1OC (stereo not drawn) [Compound E1.050, N-[2-(3-methoxy-4-prop-2-ynyloxy-phenyl)-ethyl]-2-prop-2-ynyloxy-2-(4-trifluoromethyl-phenyl)-acetamide]
80 to 100%: all assays above

C#CCOc1ccc(CCNC(=O)C(OCC#C)c2ccc(CC)cc2)cc1OC (stereo not drawn) [Compound E1.053, 2-(4-ethyl-phenyl)-N-[2-(3-methoxy-4-prop-2-ynyloxy-phenyl)-ethyl]-2-prop-2-ynyloxy-acetamide]
80 to 100%: all assays above

C#CCOc1ccc(CCNC(=O)C(OCC#C)c2ccc(F)c(F)c2)cc1OC (stereo not drawn) [Compound E1.085, 2-(3,4-difluoro-phenyl)-N-[2-(3-methoxy-4-prop-2-ynyloxy-phenyl)-ethyl]-2-prop-2-ynyloxy-acetamide]
80 to 100%: all assays above
